From patent publication US7906504B2, “2-(1-oxo-1H-isoquinolin-2-yl)acetamide derivatives” (N.V. Organon, priority 2006, dated 2011) come the findings set out here.

The structures appear in SMILES notation.

For assay [1], the target named is T1, V3 receptor (Rattus norvegicus, UniProt P48974).
T1 construct: Anterior pituitary corticotrophs were prepared from adult female Sprague-Dawley rats; endogenous in cells; host or cells: primary anterior pituitary corticotrophs from adult female Sprague-Dawley rats
T1 sequence (P48974 1-425): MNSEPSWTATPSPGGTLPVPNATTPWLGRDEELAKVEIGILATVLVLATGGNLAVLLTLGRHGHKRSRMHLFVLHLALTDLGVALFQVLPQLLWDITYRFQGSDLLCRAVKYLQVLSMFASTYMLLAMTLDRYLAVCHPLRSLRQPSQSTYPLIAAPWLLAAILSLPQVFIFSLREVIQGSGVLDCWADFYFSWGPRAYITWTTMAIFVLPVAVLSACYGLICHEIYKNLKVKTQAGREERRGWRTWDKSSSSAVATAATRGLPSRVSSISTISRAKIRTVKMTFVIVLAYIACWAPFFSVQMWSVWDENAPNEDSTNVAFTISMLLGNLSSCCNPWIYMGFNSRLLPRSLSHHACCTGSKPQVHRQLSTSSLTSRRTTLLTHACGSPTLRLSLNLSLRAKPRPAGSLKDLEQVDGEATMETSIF
As to the kind of experiment: Block of AVP-induced ACTH release from isolated rat anterior pituitary corticotrophs. The class given is cell-based. The following applies: ACTH release after 3x10^-9 mol/L AVP for 120 minutes; ELISA; read-out: V3 receptor antagonism in isolated rat anterior pituitary cells. How it is done: The ability of compounds of the invention to act as V3 antagonists in a physiologically relevant system was determined by measuring their ability to block the release of adrenocorticotropic hormone (ACTH) from anterior pituitary corticotrophs in response to treatment with arginine vasopressin (AVP).
Anterior pituitary corticotrophs were prepared from adult female Sprague-Dawley rats and seeded into 48 well plates. The cells were cultured for 4 days prior to exposure to compound. Test compounds were prepared at 10^−5 mol.L^−1 in 100% DMSO. Cells were exposed to a dose response of test compounds for 20 minutes (10^−8 mol.L^−1−10^−5 mol.L^−1). The final concentration of DMSO in the assay was kept constant at 0.3%. The cells were then exposed to 3×10^−9 mol.L^−1 AVP for 120 minutes. Supernatants were harvested and stored at −20° C. ACTH levels were subsequently measured by ELISA following the manufacturer's instructions (Immunodiagnostic systems, UK (Cat No. DX-SDX018)). Each treatment was carried out in quadruplicate and a mean value obtained for the amount of ACTH released. The degree of antagonism was then calculated as a percentage of the amount of ACTH released by agonist alone after adjustment for basal levels of ACTH. A pIC50 was calculated by fitting a Sigmoidal dose response (variable slope) curve with a non-linear (fit) to the data using the software package GraphPad prism. […]
Background: ELISA stands for enzyme-linked immunosorbent assay.

For assay [2], the target named is T2, human V3 receptor (Homo sapiens, UniProt P47901).
T2 construct: expressed in transfected cells
T2 sequence (P47901 1-424): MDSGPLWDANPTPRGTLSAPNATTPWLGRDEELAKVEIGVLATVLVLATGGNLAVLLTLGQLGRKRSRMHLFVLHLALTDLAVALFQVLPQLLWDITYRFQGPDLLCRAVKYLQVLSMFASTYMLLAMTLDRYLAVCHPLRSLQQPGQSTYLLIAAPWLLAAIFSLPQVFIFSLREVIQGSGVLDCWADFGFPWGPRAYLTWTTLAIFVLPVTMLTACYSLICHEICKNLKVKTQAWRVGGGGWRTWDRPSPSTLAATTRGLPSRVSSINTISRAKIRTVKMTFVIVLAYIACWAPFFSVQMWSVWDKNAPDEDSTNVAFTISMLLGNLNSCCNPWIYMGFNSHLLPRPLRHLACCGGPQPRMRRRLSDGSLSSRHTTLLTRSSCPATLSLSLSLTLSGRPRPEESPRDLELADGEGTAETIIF
The assay can be described thus: [3H]AVP binding to CHO cells stably expressing the human V3 receptor. The following applies: [3H]AVP 2.5x10^-9 mol/L. How it is done:
Chinese Hamster Ovary (CHO) cells stably expressing the human V3 receptor were incubated to equilibrium with the test compound (at a final assay concentration of 10^−10 mol.L^−1 to 10^−5 mol.L^−1) and [^3H]AVP (at a final assay concentration of 2.5×10^−9 mol.L^−1). […] After washing with ice-cold phosphate buffered saline (PBS), scintillation fluid was added and the plates counted on a Topcount NXT apparatus.
A sigmoidal dose response curve (non-linear regression, variable slope) was plotted as concentration of test compound (mol.L^−1) against percentage specific binding of [^3H]AVP and a Ki value was calculated. Each determination was carried out in triplicate and repeated on at least 3 separate occasions

Take `CC(C)NC(=O)Cn1c(-c2cccc(Cl)c2)cc2ccc(OC[C@@H](C)CN3CCCC3)cc2c1=O` [EXAMPLE 1, 2-[3-(3-Chlorophenyl)-7-((S)-2-methyl-3-pyrrolidin-1-ylpropoxy)-1-oxo-1H-isoquinolin-2-yl]-N-isopropylacetamide]: the IC50 in assay [1] lay in the range of 100 to 1000 nM.
In assay [2], `CC(C)NC(=O)Cn1c(-c2cccc(F)c2)cc2ccc(OC[C@@H](C)CN(C)C)cc2c1=O` [EXAMPLE 3, 2-[7-((S)-3-Dimethylamino-2-methylpropoxy)-3-(3-fluorophenyl)-1-oxo-1H-isoquinolin-2-yl]-N-isopropylacetamide] displayed a Ki of 10 to 100 nM.
Same read-out and setting: with `COc1cccc(-c2cc3ccc(OC[C@@H](C)CN4CCCCC4)cc3c(=O)n2CC(=O)NC(C)C)c1` [EXAMPLE 14, N-Isopropyl-2-[3-(3-methoxyphenyl)-7-((S)-2-methyl-3-piperidin-1-ylpropoxy)-1-oxo-1H-isoquinolin-2-yl]acetamide] the figure was 100 to 1000 nM.
Regarding `CC(C)(C)NC(=O)Cn1c(-c2cccc(Cl)c2)cc2ccc(OCCCN3CCC(O)CC3)cc2c1=O` [EXAMPLE 17, N-tert-Butyl-2-{3-(3-Chlorophenyl)-7-[3-(4-hydroxypiperidin-1-yl)-propoxy]-1-oxo-1H-isoquinolin-2-yl}-acetamide], in assay [1], the IC50 is 10 to 100 nM.
As to `COc1cccc(-c2cc3ccc(OCCCN4CCCC4)cc3c(=O)n2CC(=O)NC(C)(C)C)n1` [EXAMPLE 23, N-tert-Butyl-2-[3-(6-methoxypyridin-2-yl)-1-oxo-7-(3-pyrrolidin-1-ylpropoxy)-1H-isoquinolin-2-yl]acetamide], the Ki in assay [2] was 10 to 100 nM.
`CC(C)NC(=O)Cn1c(-c2ccccc2)cc2ccc(OCCCN3CCCCC3)cc2c1=O` [EXAMPLE 26, N-Isopropyl-2-[1-oxo-3-phenyl-7-(3-piperidin-1-ylpropoxy)-1H-isoquinolin-2-yl]acetamide]: in assay [2], the Ki was < 10 nM.
Same read-out and setting: in the case of `CC(C)(C)NC(=O)Cn1c(-c2ccc(F)c(Cl)c2)cc2ccc(OCCCN3CCCC3)cc2c1=O` [EXAMPLE 28, N-tert-Butyl-2-[3-(3-chloro-4-fluorophenyl)-1-oxo-7-(3-pyrrolidin-1-ylpropoxy)-1H-isoquinolin-2-yl]acetamide] it was 100 to 1000 nM; in that of `CC(C)NC(=O)Cn1c(-c2cccc(Cl)c2)cc2ccc(-c3cccc(CN4CCCCC4)c3)cc2c1=O` [EXAMPLE 35, 2-[3-(3-Chlorophenyl)-1-oxo-7-(3-piperidin-1-ylmethylphenyl)-1H-isoquinolin-2-yl]-N-isopropylacetamide], 10 to 100 nM.

A word on the Ki: it is a dissociation constant, usually derived from enzyme kinetics or from competition with a known ligand. Low values mean higher affinity, high ones lower affinity.
